The text below walks through data of patent US20100267561A1, “HERBICIDAL PYRIDAZINONE DERIVATIVES” (priority 2007, published 2010).

Common to all, as to assay: Test A pre-/postemergence plant response
Holding throughout (format): in vivo

Assay [1] relates to barnyardgrass (Echinochloa crus-galli). The conditions noted are these: Echinochloa crus-galli, 240 h, read-out: Plant response rating, Barnyardgrass; for pest or weed control at 125 g/ha: 125 g ai/ha; for pest or weed control at 500 g/ha: 500 g ai/ha; for pest or weed control at 31 g/ha: 31 g ai/ha. The gist of the method:
(§1)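 Both pre- and postemergence treatment given concurrently; postemergence seedlings measured 2–10 cm at the one- to two-leaf stage. Visual injury, 0–100 scale versus untreated, at ~10 days.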

Assay [2] has as its system corn (Zea mays). To be noted: Zea mays, 240 h; for Corn plant response rating (crop injury, 0 = no effect, 100 = complete kill) at 125 g/ha: 125 g ai/ha; for Corn plant response rating (crop injury, 0 = no effect, 100 = complete kill) at 500 g/ha: 500 g ai/ha; for Corn plant response rating (crop injury, 0 = no effect, 100 = complete kill) at 31 g/ha: 31 g ai/ha. The procedure, abridged:
as §1

The subject of assay [3] is wheat (Triticum aestivum). To be noted: Triticum aestivum, 240 h, read-out: Plant response rating, Wheat; for plant injury at 125 g/ha: 125 g ai/ha; for plant injury at 500 g/ha: 500 g ai/ha; for plant injury at 31 g/ha: 31 g ai/ha. The gist of the method:
as §1

Assay [4] concerns pigweed (Amaranthus retroflexus). To be noted: Amaranthus retroflexus, 240 h, read-out: Plant response rating, Pigweed; for pest or weed control at 125 g/ha: 125 g ai/ha; for pest or weed control at 500 g/ha: 500 g ai/ha; for pest or weed control at 31 g/ha: 31 g ai/ha. The gist of the method: as §1
For assay [5], the system named is giant foxtail (Setaria faberi). To be noted: Setaria faberi, 240 h, read-out: Plant response rating, Foxtail, Giant; for pest or weed control at 125 g/ha: 125 g ai/ha; for pest or weed control at 500 g/ha: 500 g ai/ha; for pest or weed control at 31 g/ha: 31 g ai/ha. The procedure, abridged: as §1
For assay [6], the system named is large crabgrass (Digitaria sanguinalis). The conditions noted are these: Digitaria sanguinalis, 240 h, read-out: Plant response rating, Crabgrass, Large; for pest or weed control at 125 g/ha: 125 g ai/ha; for pest or weed control at 500 g/ha: 500 g ai/ha; for pest or weed control at 31 g/ha: 31 g ai/ha. The gist of the method:
as §1

The mark [7] stands for this setting: post-emergence, Postemergence, 0 to 100 scale, 0 no effect, 100 complete control.
Where [8] appears, read: pre-emergence, Preemergence, 0 to 100 scale (0 no effect, 100 complete control).
Where [9] appears, read: post-emergence, Postemergence, 0 to 100 scale (0 no effect, 100 complete control).
[10] abbreviates: pre-emergence, Preemergence, 0 to 100 scale, 0 is no effect, 100 is complete control.

Like-named read-outs stand apart in the source and are kept apart here.

`Cc1cc(-c2ccc(Br)cc2)nn1-c1c(O)cnn(C2CCCCO2)c1=O` (stereo not drawn) [Compound 77, 4-[3-(4-bromophenyl)-5-methyl-1H-pyrazol-1-yl]-5-hydroxy-2-(tetrahydro-2H-pyran-2-yl)-3(2H)-pyridazinone]: the pest or weed control at 125 g/ha in assay [1] (setting [7]) was 50%; in assay [1] (setting [8]), 0%; in assay [4] (setting [7]) it was 0%; in assay [4] (setting [8]) it was 0%; in assay [5] (setting [7]) it was 80%; in assay [5] (setting [8]) it was 30%. Moreover, the pest or weed control at 125 g/ha in assay [6] (setting [7]) turned out to be 70%; in assay [6] (setting [8]) it was 10%. For the same compound, the pest or weed control at 500 g/ha in assay [1] (setting [7]) turned out to be 100%; in assay [1] (setting [8]), 100%; in assay [4] (setting [7]), 0%; in assay [4] (setting [8]), 0%; in assay [5] (setting [7]), 100%; in assay [5] (setting [8]) it was 100%. Moreover, the pest or weed control at 500 g/ha in assay [6] (setting [7]) and in assay [6] (setting [8]) was 100% in each case. Also, the Corn plant response rating (crop injury, 0 = no effect, 100 = complete kill) at 125 g/ha in assay [2] (setting [7]) amounted to 80%; in assay [2] (setting [8]), 30%. Moreover, the Corn plant response rating (crop injury, 0 = no effect, 100 = complete kill) at 500 g/ha in assay [2] (setting [7]) worked out at 100%; in assay [2] (setting [8]) it was 80%. Also, the results for the plant injury at 125 g/ha in assay [3] (setting [7]) and in assay [3] (setting [8]) were 70% and 0%, respectively. In addition, the plant injury at 500 g/ha in assay [3] (setting [7]) turned out to be 90%; in assay [3] (setting [8]), 80%.

As to `Cc1cn(-c2ccc(C(F)(F)F)cc2)nc1-c1c(O)cnn(C)c1=O` [Compound 85, 5-hydroxy-2-methyl-4-[4-methyl-1-[4-(trifluoromethyl)phenyl]-1H-pyrazol-3-yl]-3(2H)-pyridazinone], the pest or weed control at 31 g/ha in assay [1] (setting [9]), in assay [1] (setting [10]), in assay [4] (setting [9]), in assay [4] (setting [10]), in assay [5] (setting [9]) and in assay [5] (setting [10]) was 0% each time. Also, the figures for the pest or weed control at 31 g/ha in assay [6] (setting [9]) and in assay [6] (setting [10]) were 0% and 10%, respectively. Further, the pest or weed control at 125 g/ha turned out to be 30% in assay [1] (setting [7]); 40% in assay [1] (setting [8]); 0% in assay [4] (setting [7]); 0% in assay [4] (setting [8]); 60% in assay [5] (setting [7]); 100% in assay [5] (setting [8]). Besides, the pest or weed control at 125 g/ha in assay [6] (setting [7]) came to 40%; in assay [6] (setting [8]), 70%. The Corn plant response rating (crop injury, 0 = no effect, 100 = complete kill) at 31 g/ha in assay [2] (setting [9]) and in assay [2] (setting [10]) was 0% each time. For the same compound, the Corn plant response rating (crop injury, 0 = no effect, 100 = complete kill) at 125 g/ha in assay [2] (setting [7]) and in assay [2] (setting [8]) was 0% throughout. Besides, the plant injury at 31 g/ha in assay [3] (setting [9]) and in assay [3] (setting [10]) was 0% each time. In addition, the plant injury at 125 g/ha in assay [3] (setting [7]) and in assay [3] (setting [8]) was 20% each time.

For `Cn1ncc(O)c(-c2nn(-c3ccc(C(F)(F)F)cc3)cc2Br)c1=O` [Compound 87, 4-[4-bromo-1-[4-(trifluoromethyl)phenyl]-1H-pyrazol-3-yl]-5-hydroxy-2-methyl-3(2H)-pyridazinone], the pest or weed control at 31 g/ha in assay [1] (setting [9]) is 0%; in assay [1] (setting [10]), 0%; in assay [4] (setting [9]), 0%; in assay [4] (setting [10]) it was 0%; in assay [5] (setting [9]), 20%; in assay [5] (setting [10]), 20%. In addition, the pest or weed control at 31 g/ha in assay [6] (setting [9]) was determined as 10%; in assay [6] (setting [10]), 20%. The pest or weed control at 125 g/ha in assay [1] (setting [7]) was determined as 90%; in assay [1] (setting [8]) it was 50%; in assay [4] (setting [7]) it was 0%; in assay [4] (setting [8]), 0%; in assay [5] (setting [7]), 80%; in assay [5] (setting [8]), 90%. Besides, the pest or weed control at 125 g/ha in assay [6] (setting [7]) came to 80%; in assay [6] (setting [8]), 70%. In addition, the Corn plant response rating (crop injury, 0 = no effect, 100 = complete kill) at 31 g/ha in assay [2] (setting [9]) and in assay [2] (setting [10]) was 0% in each case. The Corn plant response rating (crop injury, 0 = no effect, 100 = complete kill) at 125 g/ha in assay [2] (setting [7]) was 40%; in assay [2] (setting [8]), 20%. The plant injury at 31 g/ha in assay [3] (setting [9]) worked out at 20%; in assay [3] (setting [10]) it was 0%. Moreover, the plant injury at 125 g/ha in assay [3] (setting [7]) was 50%; in assay [3] (setting [8]), 20%.
